This is an account of results in patent publication US10125098B2, “Therapeutic compounds and methods of use thereof” (GENENTECH, INC., priority 2014, dated 2018).

By IC50 is commonly meant the concentration that gives 50% inhibition.

Structures can show the parent of a compound that is named as a salt.

The target of this test is T1, hNav1.7 (Homo sapiens, UniProt Q15858).
T1 construct: expressed in transfected cells
T1 sequence (Q15858 1-1977 isoform Q15858-3): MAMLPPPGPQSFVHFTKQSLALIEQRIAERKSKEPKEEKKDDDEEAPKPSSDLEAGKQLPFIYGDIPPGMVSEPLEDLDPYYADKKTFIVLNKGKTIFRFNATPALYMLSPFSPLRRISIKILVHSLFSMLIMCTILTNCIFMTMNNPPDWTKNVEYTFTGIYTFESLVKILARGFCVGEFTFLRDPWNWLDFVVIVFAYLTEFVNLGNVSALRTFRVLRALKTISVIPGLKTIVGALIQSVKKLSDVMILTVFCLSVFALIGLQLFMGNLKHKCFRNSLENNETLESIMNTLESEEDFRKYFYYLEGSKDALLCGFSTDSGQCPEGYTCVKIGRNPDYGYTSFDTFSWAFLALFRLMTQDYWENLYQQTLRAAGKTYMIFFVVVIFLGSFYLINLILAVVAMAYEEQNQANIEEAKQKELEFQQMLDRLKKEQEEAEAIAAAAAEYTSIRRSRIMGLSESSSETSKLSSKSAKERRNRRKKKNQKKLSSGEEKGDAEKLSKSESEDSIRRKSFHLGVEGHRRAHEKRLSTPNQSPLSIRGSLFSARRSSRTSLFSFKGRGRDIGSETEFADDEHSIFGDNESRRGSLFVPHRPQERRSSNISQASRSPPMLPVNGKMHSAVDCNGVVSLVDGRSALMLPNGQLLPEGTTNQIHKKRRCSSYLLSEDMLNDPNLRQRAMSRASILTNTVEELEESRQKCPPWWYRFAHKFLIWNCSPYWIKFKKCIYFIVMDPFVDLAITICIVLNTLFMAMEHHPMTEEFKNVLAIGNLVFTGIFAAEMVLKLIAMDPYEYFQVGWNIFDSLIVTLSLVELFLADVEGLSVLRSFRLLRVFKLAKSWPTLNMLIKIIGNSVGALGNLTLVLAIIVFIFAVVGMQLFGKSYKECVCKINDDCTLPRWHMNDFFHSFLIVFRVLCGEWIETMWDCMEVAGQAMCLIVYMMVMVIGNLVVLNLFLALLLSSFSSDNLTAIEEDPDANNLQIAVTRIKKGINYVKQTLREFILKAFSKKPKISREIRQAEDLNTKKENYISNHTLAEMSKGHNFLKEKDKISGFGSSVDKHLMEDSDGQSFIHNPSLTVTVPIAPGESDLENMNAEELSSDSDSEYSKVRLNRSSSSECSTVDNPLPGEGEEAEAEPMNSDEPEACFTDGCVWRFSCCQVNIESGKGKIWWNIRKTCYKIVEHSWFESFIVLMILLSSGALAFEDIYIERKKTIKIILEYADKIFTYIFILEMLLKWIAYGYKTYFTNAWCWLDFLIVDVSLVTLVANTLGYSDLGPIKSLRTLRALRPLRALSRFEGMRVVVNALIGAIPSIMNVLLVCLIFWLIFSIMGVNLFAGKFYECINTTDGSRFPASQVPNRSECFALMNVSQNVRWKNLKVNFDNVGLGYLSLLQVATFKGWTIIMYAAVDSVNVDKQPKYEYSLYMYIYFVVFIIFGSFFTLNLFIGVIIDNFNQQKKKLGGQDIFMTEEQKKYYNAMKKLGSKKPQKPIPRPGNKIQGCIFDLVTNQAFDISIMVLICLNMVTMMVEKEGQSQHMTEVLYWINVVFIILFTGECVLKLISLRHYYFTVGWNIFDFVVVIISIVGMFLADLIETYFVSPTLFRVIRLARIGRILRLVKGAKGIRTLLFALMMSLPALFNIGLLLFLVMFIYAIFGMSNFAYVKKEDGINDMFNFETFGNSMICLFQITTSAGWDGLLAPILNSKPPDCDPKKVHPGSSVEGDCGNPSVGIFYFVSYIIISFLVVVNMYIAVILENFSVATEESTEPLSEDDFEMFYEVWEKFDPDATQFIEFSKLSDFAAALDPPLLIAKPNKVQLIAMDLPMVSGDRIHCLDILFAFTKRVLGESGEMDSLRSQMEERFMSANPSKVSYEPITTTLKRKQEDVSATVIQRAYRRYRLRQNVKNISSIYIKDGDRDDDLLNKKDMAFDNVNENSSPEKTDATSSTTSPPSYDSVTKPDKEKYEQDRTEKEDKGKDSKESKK
T1 sequence (Q07699 19-218 partner): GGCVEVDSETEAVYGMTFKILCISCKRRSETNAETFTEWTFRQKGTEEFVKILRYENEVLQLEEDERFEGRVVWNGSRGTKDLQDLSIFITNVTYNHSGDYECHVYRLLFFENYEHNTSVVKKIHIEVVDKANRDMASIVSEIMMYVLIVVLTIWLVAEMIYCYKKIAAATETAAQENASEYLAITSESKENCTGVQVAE
Kind of test: Tritiated compound binding (LBA) to membranes from cells expressing hNav1.7 and the β1 subunit, competitive binding. As to conditions: competitive binding vs 100 pM [3H]compound, 18 h, room temperature, membranes with hNav1.7 and β1 subunit. The protocol:
Tritiated Compound Binding to Membranes
Isolated from Cells that Heterologously Express hNav1.7 and the β1 Subunit
Preparation of membranes containing recombinantly expressed sodium channels: Frozen recombinant cell pellets were thawed on ice and diluted to 4 times the cell pellet weight with ice cold 50 mM Tris HCl, pH 7.4 buffer. The cell suspensions were homogenized on ice using a motorized glass dounce homogeniser. […] The supernatants were collected and centrifuged at 10000×g at 4° C. for 50 min. The pellets were then re-suspended in 100 mM NaCl, 20 mM Tris HCl, pH 7.4 buffer containing 1% v/v protease inhibitors (Calbiochem) and re-homogenized on ice. The homogenized membranes were then processed through a syringe equipped with a 26 gauge needle. Protein concentrations were determined by Bradford Assay and the membranes were stored at −80° C.
Saturation experiments. A representative compound of formula (I) having a methyl group was tritiated. Three tritiums were incorporated in place of methyl hydrogens to generate [^3H]compound. Binding of this radioligand was performed in 5 mL borosilicate glass test tubes at room temperature. Binding was initiated by adding membranes to increasing concentrations of [^3H]compound in 100 mM NaCl, 20 mM Tris HCl, pH 7.4 buffer containing 0.01% w/v bovine serum albumin (BSA) for 18 h. Non-specific binding was determined in the presence of 1 μM unlabeled compound. After 18 h, the reactants were filtered through GF/C glass fiber filters presoaked in 0.5% w/v polyethylene imine. […] [^3H]compound bound to filters was quantified by liquid scintillation counting.
Binding reactions were performed in 96-well polypropylene plates at room temperature for 18 h. In 360 μL, membranes were incubated with 100 pM [^3H]compound and increasing concentrations of Test Compound. Non-specific binding was defined in the presence of 1 μM unlabeled compound. Reactions were transferred and filtered through 96-well glass fiber/C filter plates presoaked with 0.5% polyethylene imine. […] Bound radioactivity was determined by liquid scintillation counting.
Data Analysis: For saturation experiments, non-specific binding was subtracted from total binding to provide specific binding and these values were recalculated in terms of pmol ligand bound per mg protein. Saturation curves were constructed and dissociation constants were calculated using the single site ligand binding model: Beq=(Bmax*X)/(X+Kd), where Beq is the amount of ligand bound at equilibrium, Bmax is the maximum receptor density, Kd is the dissociation constant for the ligand, and X is the free ligand concentration. For competition studies percent inhibition was determined and IC50 values were calculated using a 4 parameter logistic model (% inhibition=(A+((B−A)/(1+((x/C)^D)))) using XLfit, where A and B are the maximal and minimum inhibition respectively, C is the IC50 concentration and D is the (Hill) slope.
In turn, `O=C(O)[C@@H]1CCCN1C(=O)c1cc(C2CC2)c(OCC2CCN(Cc3nc(-c4ccccc4Cl)no3)CC2)cc1F` [Example 29, (S)-1-(4-((1-((3-(2-chlorophenyl)-1,2,4-oxadiazol-5-yl)methyl)piperidin-4-yl)methoxy)-5-cyclopropyl-2-fluorobenzoyl)pyrrolidine-2-carboxylic acid trifluoroacetic acid salt] had an IC50 of 629 nM.

Consider `O=C(O)[C@@H]1CCCN1C(=O)c1cc(Cl)c(COc2ccc(OC(F)(F)F)c(Cl)c2)cc1F` [Example 30, (S)-1-(5-chloro-4-((3-chloro-4-(trifluoromethoxy)phenoxy)methyl)-2-fluorobenzoyl)pyrrolidine-2-carboxylic acid], for which the 50% inhibitory concentration (IC50) worked out at 345 nM.

As to `N#CC1(COc2cc(F)c(C(=O)N3CCC[C@H]3C(=O)O)cc2Cl)C2CC3CC(C2)CC1C3` (stereo partly drawn) [Example 31, (S)-1-(5-chloro-4-(((1S,3S,5S,7S)-2-cyanoadamantan-2-yl)methoxy)-2-fluorobenzoyl)pyrrolidine-2-carboxylic acid], the IC50 is more than 10000 nM.

`N#CC1(COc2cc(F)c(C(=O)N3CCC[C@H]3C(=O)O)cc2C2CC2)C2CC3CC(C2)CC1C3` (stereo partly drawn) [Example 32, (S)-1-(4-(((1S,3S,5S,7S)-2-cyanoadamantan-2-yl)methoxy)-5-cyclopropyl-2-fluorobenzoyl)pyrrolidine-2-carboxylic acid] registered an IC50 of 1540 nM.

As to `CC(C)(C)OC(=O)N1CC(n2nccc2-c2cc(Cl)ccc2Oc2cc(F)c(C(=O)N3CCC[C@H]3C(=O)O)cc2F)C1` [Example 33, (S)-1-(4-(2-(1-(1-(tert-butoxycarbonyl)azetidin-3-yl)-1H-pyrazol-5-yl)-4-chlorophenoxy)-2,5-difluorobenzoyl)pyrrolidine-2-carboxylic acid], the IC50 was more than 10000 nM.

`O=C(O)[C@@H]1CCCN1C(=O)c1cc(F)c(Oc2ccc(Cl)cc2-c2ccnn2C2CNC2)cc1F` [Example 34, (S)-1-(4-(2-(1-(azetidin-3-yl)-1H-pyrazol-5-yl)-4-chlorophenoxy)-2,5-difluorobenzoyl)pyrrolidine-2-carboxylic acid trifluoroacetic acid salt]: the IC50 was more than 10000 nM.

For `O=C(O)CNC(=O)c1cc(C2CC2)c(OCC23CC4CC(CC(C4)C2)C3)cc1F` [Example 35, 2-(4-(adamantan-1-ylmethoxy)-5-cyclopropyl-2-fluorobenzamido) acetic acid], the IC50 was 7830 nM.

The compound `O=C(NC1(C(=O)O)CC1)c1cc(Cl)c(Oc2ccc(OC(F)(F)F)c(Cl)c2)cc1F` [Example 36, 1-(5-chloro-4-(3-chloro-4-(trifluoromethoxy)phenoxy)-2-fluorobenzamido)-cyclopropanecarboxylic acid] returned an IC50 of more than 10000 nM.

As for `O=C(O)[C@@H]1CCCN1C(=O)c1cc(Cl)c(Oc2ccc(OC(F)(F)F)c(Cl)c2)cc1F` [Example 37, (S)-1-(5-chloro-4-(3-chloro-4-(trifluoromethoxy)phenoxy)-2-fluorobenzoyl)-pyrrolidine-2-carboxylic acid], the IC50 was found to be 5230 nM.

`O=C(O)[C@@H]1CCCN1C(=O)c1cc(C2CC2)c(O[C@@H]2CCCN(Cc3ccc(F)cc3Cl)C2)cc1F` [Example 38, (S)-1-(4-(((R)-1-(2-chloro-4-fluorobenzyl)piperidin-3-yl)oxy)-5-cyclopropyl-2-fluorobenzoyl)pyrrolidine-2-carboxylic acid trifluoroacetic acid salt]: the IC50 came to 152 nM.

The compound `CC(c1cc(Cl)cc(Cl)c1)N1CCC(COc2cc(F)c(C(=O)N3CCC[C@H]3C(=O)O)cc2C2CC2)CC1` (stereo partly drawn) [Example 39, (2S)-1-(5-cyclopropyl-4-((1-(1-(3,5-dichlorophenyl)ethyl)piperidin-4-yl)methoxy)-2-fluorobenzoyl)pyrrolidine-2-carboxylic acid trifluoroacetic acid salt] displayed an IC50 of 43.6 nM.

`Cc1cc(C(=O)N2CCC[C@H]2C(=O)O)c(F)cc1OCC12CC3CC(CC(C3)C1)C2` [Example 40, (S)-1-(4-(adamantan-1-ylmethoxy)-2-fluoro-5-methylbenzoyl)pyrrolidine-2-carboxylic acid]: the IC50 stood at 452 nM.

The compound `O=C(O)[C@@H]1CCCN1C(=O)c1cc(Cl)c(OCC23CC4CC(CC(C4)C2)C3)cc1F` [Example 41, (S)-1-(4-(adamantan-1-ylmethoxy)-5-chloro-2-fluorobenzoyl)pyrrolidine-2-carboxylic acid] yielded an IC50 of 640 nM.

`C[C@]1(COc2cc(F)c(C(=O)N3CCC[C@H]3C(=O)O)cc2C2CC2)CC[C@@H](C(F)(F)F)CC1` [Example 42, cis-(S)-1-(5-cyclopropyl-2-fluoro-4-((1-methyl-4-(trifluoromethyl)-cyclohexyl)methoxy)benzoyl)pyrrolidine-2-carboxylic acid] returned an IC50 of 231 nM.

In the case of `CC[C@H](C)[C@H](NC(=O)c1cc(C2CC2)c(OCC23CC4CC(CC(C4)C2)C3)cc1F)C(=O)O` [Example 43, (2S,3S)-2-(4-(adamantan-1-ylmethoxy)-5-cyclopropyl-2-fluorobenzamido)-3-methylpentanoic acid], the IC50 is 82.3 nM.

On to `O=C(O)[C@@H]1CCCN1C(=O)c1cc(Cl)c(OC[C@@H]2C[C@@H]3[C@H](C2)C3(F)F)cc1F` [Example 44], for which the IC50 is not below 10000 nM.

For `O=C(O)[C@@H]1CCCN1C(=O)c1cc(Cl)c(Oc2cnc(OCC(F)(F)F)c(Cl)c2)cc1F` [Example 217, (S)-1-(5-Chloro-4-((5-chloro-6-(2,2,2-trifluoroethoxy)pyridin-3-yl)oxy)-2-fluorobenzoyl)pyrrolidine-2-carboxylic acid trifluoroacetate], the IC50 turned out to be 2700 nM.
